Measurements reported in the supplement of paper PMC11061612.

How the values were obtained:
Experiment in all cases: combination Emax (second highest fraction inhibited in the dose matrix, 72 h); higher = more inhibition; extreme values may be limits of the assay
[1] = system: 23132-87 (Gastric Carcinoma)
Summary of the method: (§1)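 Bliss excess equals the observed combination effect minus the expected value EA + EB − EA·EB, where EA and EB are the effects of each agent alone. Combination Emax is the second-highest inhibition within the matrix. Inhibition was scaled from CellTiter-Glo 2.0 luminescence, with 0 set by vehicle wells and 1 by blank wells, after 72 hours of two-drug dosing of cells plated in 1536-well plates.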

[2] = system: CAL-120 (Breast Carcinoma)
Summary of the method: as §1

[3] = system: FADU (Head and Neck Carcinoma)
Summary of the method: as §1

[4] = system: GP5d (Colorectal Carcinoma)
Summary of the method: as §1

[5] = system: HEC-1 (Endometrial Carcinoma)
Summary of the method: as §1

[6] = system: HSC-39 (Gastric Carcinoma)
Summary of the method: as §1

IST-MES1 (Mesothelioma) = system: IST-MES1 (Mesothelioma)
Summary of the method: as §1

[7] = system: KE-37 (T-Lymphoblastic Leukemia)
Summary of the method: as §1

[8] = system: LK-2 (Squamous Cell Lung Carcinoma)
Summary of the method: as §1

[9] = system: MFE-280 (Endometrial Carcinoma)
Summary of the method: as §1

[10] = system: MKN45 (Gastric Carcinoma)
Summary of the method: as §1

[11] = system: NCI-H2342 (Lung Adenocarcinoma)
Summary of the method: as §1

[12] = system: PC-3_[JPC-3] (Lung Adenocarcinoma)
Summary of the method: as §1

[13] = system: PSN1 (Pancreatic Carcinoma)
Summary of the method: as §1

[14] = system: RCM-1 (Colorectal Carcinoma)
Summary of the method: as §1

[15] = system: REH (B-Lymphoblastic Leukemia)
Summary of the method: as §1

[16] = system: RERF-GC-1B (Gastric Carcinoma)
Summary of the method: as §1

[17] = system: RERF-LC-Sq1 (Squamous Cell Lung Carcinoma)
Summary of the method: as §1

SF268 (Low Grade Glioma) = system: SF268 (Low Grade Glioma)
Summary of the method: as §1

[18] = system: VAL (B-Cell Non-Hodgkin's Lymphoma)
Summary of the method: as §1

Cn1cnc2c(F)c(Nc3ccc(Br)cc3Cl)c(C(=O)NOCCO)cc21 [Selumetinib] + CCN(CCO)CCCOc1ccc2c(Nc3cc(CC(=O)Nc4cccc(F)c4)[nH]n3)ncnc2c1 [AZD2811] (first compound max 10 µM, 7x7, partner max 1 µM)
combination Emax [1]: 0.104
combination Emax [2]: 0.188
combination Emax [3]: 0.467
combination Emax [4]: 0.842
combination Emax [5]: 0.0639
combination Emax [6]: 0.903
combination Emax (IST-MES1 (Mesothelioma)): 0.269
combination Emax [7]: 1
combination Emax [8]: 0.795
combination Emax [9]: 0.161
combination Emax [10]: 0.674
combination Emax [11]: 0.365
combination Emax [12]: 0.189
combination Emax [13]: 0.708
combination Emax [14]: 0.656
combination Emax [15]: 0.604
combination Emax [16]: 0.436
combination Emax [17]: 0.535
combination Emax (SF268 (Low Grade Glioma)): 0.275
combination Emax [18]: 0.678

CN(CCO)CC[C@H](CSc1ccccc1)Nc1ccc(S(=O)(=O)NC(=O)c2ccc(N3CCC([C@@H](O)c4ccccc4-c4ccc(Cl)cc4)CC3)cc2)cc1S(=O)(=O)C(F)(F)F [AZD4320] + C[C@@H]1COCCN1C2=NC(=NC(=C2)C3(CC3)[S@](=N)(=O)C)C4=C5C=CNC5=NC=C4 [AZD6738] (first compound max 1 µM, 7x7, partner max 10 µM)
combination Emax [1]: 0.84
combination Emax [2]: 0.757
combination Emax [3]: 0.583
combination Emax [4]: 0.859
combination Emax [5]: 0.613
combination Emax [6]: 1
combination Emax (IST-MES1 (Mesothelioma)): 0.296
combination Emax [7]: 1
combination Emax [8]: 0.769
combination Emax [9]: 0.88
combination Emax [10]: 0.8
combination Emax [11]: 0.377
combination Emax [12]: 0.375
combination Emax [13]: 0.453
combination Emax [14]: 0.862
combination Emax [15]: 1
combination Emax [16]: 0.621
combination Emax [17]: 0.791
combination Emax (SF268 (Low Grade Glioma)): 0.78
combination Emax [18]: 1

NC1(C(=O)N[C@@H](CCO)c2ccc(Cl)cc2)CCN(c2ncnc3[nH]ccc23)CC1 [Capivasertib] + C[C@@H]1COCCN1C2=NC(=NC(=C2)C3(CC3)[S@](=N)(=O)C)C4=C5C=CNC5=NC=C4 [AZD6738] (first compound max 10 µM, 7x7, partner max 10 µM)
combination Emax [1]: 0.616
combination Emax [2]: 0.708
combination Emax [3]: 0.594
combination Emax [4]: 0.829
combination Emax [5]: 0.347
combination Emax [6]: 1
combination Emax (IST-MES1 (Mesothelioma)): 0.522
combination Emax [7]: 0.992
combination Emax [8]: 0.675
combination Emax [9]: 0.636
combination Emax [10]: 0.753
combination Emax [11]: 0.585
combination Emax [12]: 0.441
combination Emax [13]: 0.536
combination Emax [14]: 0.665
combination Emax [15]: 0.933
combination Emax [16]: 0.558
combination Emax [17]: 0.873
combination Emax (SF268 (Low Grade Glioma)): 0.644
combination Emax [18]: 0.831

CC(=O)c1c(C)c2cnc(Nc3ccc(N4CCNCC4)cn3)nc2n(C2CCCC2)c1=O [Palbociclib] + CC1(C)CCC(CN2CCN(c3ccc(C(=O)NS(=O)(=O)c4ccc(NCC5CCOCC5)c([N+](=O)[O-])c4)c(Oc4cnc5[nH]ccc5c4)c3)CC2)=C(c2ccc(Cl)cc2)C1 [Venetoclax] (first compound max 10 µM, 7x7, partner max 1 µM)
combination Emax [1]: 0.17
combination Emax [2]: 0.134
combination Emax [3]: 0.17
combination Emax [4]: 0.31
combination Emax [5]: 0.0102
combination Emax [6]: 0.633
combination Emax (IST-MES1 (Mesothelioma)): 0.253
combination Emax [7]: 0.776
combination Emax [8]: 0.102
combination Emax [9]: 0.0835
combination Emax [10]: 0.486
combination Emax [11]: 0.0497
combination Emax [12]: 0.176
combination Emax [13]: 0.437
combination Emax [14]: 0.394
combination Emax [15]: 0.825
combination Emax [16]: 0.0488
combination Emax [17]: 0.436
combination Emax (SF268 (Low Grade Glioma)): 0.254
combination Emax [18]: 0.997

COc1cc2c(cc1OCCCCCOc1cc3c(cc1OC)C(=O)N1C=C(C)C[C@H]1C=N3)N=C[C@@H]1CC(C)=CN1C2=O [SG3199] + O=C(c1cc(Cc2n[nH]c(=O)c3ccccc23)ccc1F)N1CCN(C(=O)C2CC2)CC1 [Olaparib] (first compound max 0.001 µM, 7x7, partner max 10 µM)
combination Emax [1]: 0.3
combination Emax [2]: 0.142
combination Emax [3]: 0.115
combination Emax [4]: 0.189
combination Emax [5]: 0.176
combination Emax [6]: 0.185
combination Emax (IST-MES1 (Mesothelioma)): 0.218
combination Emax [7]: 0.348
combination Emax [8]: 0.28
combination Emax [9]: 0.184
combination Emax [10]: 0.0741
combination Emax [11]: 0.0836
combination Emax [12]: 0.193
combination Emax [13]: 0.127
combination Emax [14]: 0.0628
combination Emax [15]: 0.197
combination Emax [16]: 0.245
combination Emax [17]: 0.129
combination Emax (SF268 (Low Grade Glioma)): 0.115
combination Emax [18]: 0.57

NC1(C(=O)N[C@@H](CCO)c2ccc(Cl)cc2)CCN(c2ncnc3[nH]ccc23)CC1 [Capivasertib] + CC(=O)c1c(C)c2cnc(Nc3ccc(N4CCNCC4)cn3)nc2n(C2CCCC2)c1=O [Palbociclib] (first compound max 10 µM, 7x7, partner max 10 µM)
combination Emax [1]: 0.428
combination Emax [2]: 0.561
combination Emax [3]: 0.527
combination Emax [4]: 0.648
combination Emax [5]: 0.33
combination Emax [6]: 0.749
combination Emax (IST-MES1 (Mesothelioma)): 0.303
combination Emax [7]: 0.76
combination Emax [8]: 0.205
combination Emax [9]: 0.555
combination Emax [10]: 0.628
combination Emax [11]: 0.327
combination Emax [12]: 0.398
combination Emax [13]: 0.484
combination Emax [14]: 0.383
combination Emax [15]: 0.609
combination Emax [16]: 0.458
combination Emax [17]: 0.873
combination Emax (SF268 (Low Grade Glioma)): 0.452
combination Emax [18]: 0.626
